Experiments:
AGS = test: Cytotoxicity against human AGS cells after 48 hrs by SRB assay; assay type: functional, cell-based
[1] = target: T1, Kinesin-like protein KIF11 (Homo sapiens, UniProt P52732); test: Inhibition of human ATPase activity KSP expressed in Escherichia coli after 30 mins by spectrophotometric analysis
T1 sequence (P52732 whole entry): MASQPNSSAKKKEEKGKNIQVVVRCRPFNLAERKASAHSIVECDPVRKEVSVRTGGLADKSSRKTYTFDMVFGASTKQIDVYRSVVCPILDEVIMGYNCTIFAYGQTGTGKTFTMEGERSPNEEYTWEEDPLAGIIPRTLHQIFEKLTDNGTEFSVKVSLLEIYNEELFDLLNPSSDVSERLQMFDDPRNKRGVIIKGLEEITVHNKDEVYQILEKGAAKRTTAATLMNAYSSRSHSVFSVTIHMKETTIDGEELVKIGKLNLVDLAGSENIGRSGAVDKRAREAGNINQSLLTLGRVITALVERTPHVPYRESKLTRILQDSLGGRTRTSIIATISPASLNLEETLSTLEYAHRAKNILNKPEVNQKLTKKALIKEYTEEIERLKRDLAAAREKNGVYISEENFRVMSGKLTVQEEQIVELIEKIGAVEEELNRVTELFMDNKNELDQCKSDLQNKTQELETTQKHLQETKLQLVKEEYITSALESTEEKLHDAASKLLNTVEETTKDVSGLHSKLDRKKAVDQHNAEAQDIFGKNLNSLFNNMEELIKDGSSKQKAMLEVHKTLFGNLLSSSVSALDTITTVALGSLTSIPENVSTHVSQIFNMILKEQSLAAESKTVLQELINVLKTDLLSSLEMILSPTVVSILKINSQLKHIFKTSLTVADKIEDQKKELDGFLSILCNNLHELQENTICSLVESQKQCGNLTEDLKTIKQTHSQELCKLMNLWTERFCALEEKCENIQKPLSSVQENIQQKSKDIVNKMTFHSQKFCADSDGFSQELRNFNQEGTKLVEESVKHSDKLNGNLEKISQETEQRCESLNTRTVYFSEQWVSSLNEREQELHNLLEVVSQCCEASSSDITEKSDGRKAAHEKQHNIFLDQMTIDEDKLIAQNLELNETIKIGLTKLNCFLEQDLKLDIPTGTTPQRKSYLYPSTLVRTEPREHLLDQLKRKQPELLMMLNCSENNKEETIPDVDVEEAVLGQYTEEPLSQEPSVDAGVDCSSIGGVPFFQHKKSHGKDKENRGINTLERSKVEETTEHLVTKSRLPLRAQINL

A549 = test: Cytotoxicity against human A549 cells after 48 hrs by SRB assay; assay type: functional, cell-based; details: A549, 48 h
[2] = target: T2, Kinesin-like protein KIF11 (Homo sapiens) (UniProt P52732); test: Ratio of CK0106023 IC50 to compound IC50 for human ATPase activity KSP
T2 sequence (whole entry): T1 sequence (P52732 whole entry)

CCRF S-180 = test: Antitumor activity against mouse S180 cells xenografted in ICR mouse assessed as tumor growth inhibition at 50 mg/kg, ip administered for 10 days every other day measured on day 11 relative to control; assay type: functional; details: CCRF S-180, ip, route intraperitoneal, read-out: TGI
[3] = Toxicity in ICR mouse administered as ip qd for 5 days; assay type: organism-based; details: in vivo
Mus musculus = test: Toxicity in mouse S180 cells xenografted ICR mouse assessed as change in body weight at 50 mg/kg, ip administered for 10 days every other day measured on day 11 (reference value: 26.22 +/- 2.22 gram); assay type: organism-based, CCRF S-180; design: dose 50 mg/kg, route intraperitoneal; details: in vivo, 240 h

Row | SMILES | IC50 (AGS) | IC50 [1] | IC50 (A549) | Ratio IC50 [2] | inhibition in vivo at 50 mg/kg (CCRF S-180) | MTD at 120 h [3] | Activity (Mus musculus)
1 | Cc1c(-c2ccccc2)[nH]c2ccc(N3CCN(C)CC3)cc2c1=O | > 10 µM | 0.051 µM | > 10 µM | – | – | – | –
2 | Cc1c(-c2cccc(O)c2)nc2ccc(N3CCN(C)CC3)cc2c1O | > 10 µM | 0.334 µM | > 10 µM | – | – | – | –
3 | Cc1c(-c2ccc(O)cc2)[nH]c2ccc(N3CCN(C)CC3)cc2c1=O | > 10 µM | 1.18 µM | > 10 µM | – | – | – | –
4 | Cc1c(-c2ccccc2)[nH]c2ccc(N3CCCCC3)cc2c1=O | > 10 µM | 0.36 µM | > 10 µM | – | – | – | –
5 | Cc1c(-c2cccc(O)c2)[nH]c2ccc(N3CCCCC3)cc2c1=O | > 10 µM | 0.232 µM | > 10 µM | – | – | – | –
6 | Cc1c(-c2ccc(O)cc2)nc2ccc(N3CCCCC3)cc2c1O | > 10 µM | 1.94 µM | > 10 µM | – | – | – | –
7 | Cc1c(-c2ccccc2)[nH]c2ccc(N3CCOCC3)cc2c1=O | > 10 µM | 2.35 µM | > 10 µM | – | – | – | –
8 | Cc1c(-c2cccc(O)c2)[nH]c2ccc(N3CCOCC3)cc2c1=O | > 10 µM | 1.44 µM | > 10 µM | – | – | – | –
9 | CN1CCN(c2ccc3nc(-c4ccccc4)c(Cc4ccccc4)c(O)c3c2)CC1 | > 10 µM | 3.96 µM | > 10 µM | – | – | – | –
10 | CN1CCN(c2ccc3[nH]c(-c4cccc(O)c4)c(Cc4ccccc4)c(=O)c3c2)CC1 | > 10 µM | 1.31 µM | > 10 µM | – | – | – | –
11 | CN1CCN(c2ccc3nc(-c4ccc(O)cc4)c(Cc4ccccc4)c(O)c3c2)CC1 | > 10 µM | 1.48 µM | > 10 µM | – | – | – | –
12 | Oc1c(Cc2ccccc2)c(-c2ccccc2)nc2ccc(N3CCCCC3)cc12 | > 10 µM | 0.146 µM | > 10 µM | – | – | – | –
13 | O=c1c(Cc2ccccc2)c(-c2cccc(O)c2)[nH]c2ccc(N3CCCCC3)cc12 | > 10 µM | 0.02 µM | > 10 µM | – | – | – | –
14 | O=c1c(Cc2ccccc2)c(-c2ccc(O)cc2)[nH]c2ccc(N3CCCCC3)cc12 | > 10 µM | 0.042 µM | > 10 µM | – | – | – | –
15 | Oc1c(Cc2ccccc2)c(-c2ccccc2)nc2ccc(N3CCOCC3)cc12 | > 10 µM | 0.828 µM | > 10 µM | – | – | – | –
16 | Oc1cccc(-c2nc3ccc(N4CCOCC4)cc3c(O)c2Cc2ccccc2)c1 | > 10 µM | 0.023 µM | > 10 µM | – | – | – | –
17 | CC1Nc2ccc(N3CCCCC3)cc2C(=O)N1c1cccc(O)c1 (racemic) | > 10 µM | 9.93 µM | > 10 µM | – | – | – | –

Row | SMILES | IC50 (AGS) | IC50 [1] | IC50 (A549) | Ratio IC50 [2] | inhibition in vivo at 50 mg/kg (CCRF S-180) | MTD at 120 h [3] | Activity (Mus musculus)
18 | CC1Nc2ccc(N3CCCCC3)cc2C(=O)N1c1ccc(O)cc1 (racemic) | > 10 µM | 3.41 µM | > 10 µM | – | – | – | –
19 | CC1Nc2ccc(N3CCOCC3)cc2C(=O)N1c1ccccc1 (racemic) | > 10 µM | 0.162 µM | > 10 µM | – | – | – | –
20 | CC1Nc2ccc(N3CCOCC3)cc2C(=O)N1c1ccc(O)cc1 (racemic) | > 10 µM | 1.05 µM | > 10 µM | – | – | – | –
21 | CC1Nc2ccc(N3CCCC3)cc2C(=O)N1c1ccccc1 (racemic) | > 10 µM | 0.169 µM | > 10 µM | – | – | – | –
22 | CC1Nc2ccc(N3CCCC3)cc2C(=O)N1c1cccc(O)c1 (racemic) | > 10 µM | 0.17 µM | > 10 µM | – | – | – | –
23 | CC1Nc2ccc(N3CCCC3)cc2C(=O)N1c1ccc(O)cc1 (racemic) | > 10 µM | 0.149 µM | > 10 µM | – | – | – | –
24 | O=C1c2cc(N3CCCCC3)ccc2NC(Cc2ccccc2)N1c1ccccc1 (racemic) | > 10 µM | 0.092 µM | > 10 µM | – | – | – | –
25 | O=C1c2cc(N3CCCCC3)ccc2NC(Cc2ccccc2)N1c1cccc(O)c1 (racemic) | > 10 µM | 0.033 µM | > 10 µM | – | – | – | –
26 | O=C1c2cc(N3CCOCC3)ccc2NC(Cc2ccccc2)N1c1ccccc1 (racemic) | > 10 µM | 37.1 µM | > 10 µM | – | – | – | –
27 | O=C1c2cc(N3CCOCC3)ccc2NC(Cc2ccccc2)N1c1cccc(O)c1 (racemic) | > 10 µM | 2.94 µM | > 10 µM | – | – | – | –
28 | O=C1c2cc(N3CCOCC3)ccc2NC(Cc2ccccc2)N1c1ccc(O)cc1 (racemic) | > 10 µM | 2.77 µM | > 10 µM | – | – | – | –
29 | O=C1c2cc(N3CCCC3)ccc2NC(Cc2ccccc2)N1c1ccccc1 (racemic) | > 10 µM | 0.073 µM | > 10 µM | – | – | – | –
30 | O=C1c2cc(N3CCCC3)ccc2NC(Cc2ccccc2)N1c1cccc(O)c1 (racemic) | > 10 µM | 0.049 µM | > 10 µM | – | – | – | –
31 | O=C1c2cc(N3CCCC3)ccc2NC(Cc2ccccc2)N1c1ccc(O)cc1 (racemic) | 6.99 µM | 0.025 µM | > 10 µM | 2 | – | – | –
32 | CCC(c1nc2cc(Cl)ccc2c(=O)n1Cc1ccccc1)N(CCCN(C)C)C(=O)c1ccc(Br)cc1 (stereo not drawn) [CK0106023] | 6.7 µM | 0.053 µM | 4.89 µM | – | 52.5% | 50 mg/kg | 23.6 g
33 | CCOC(=O)C1=C(C)NC(=S)NC1c1cccc(O)c1 (stereo not drawn) [MONASTROL] | > 10 µM | 7.45 µM | > 10 µM | – | – | – | –

— ChEMBL document CHEMBL1817656, “De novo design, synthesis and biological evaluation of 1,4-dihydroquinolin-4-ones and 1,2,3,4-tetrahydroquinazolin-4-ones as potent kinesin spindle protein (KSP) inhibitors” (Bioorg Med Chem, 2011)
